Experimental data published in PubChem BioAssay AID602210 (Sanford-Burnham Center for Chemical Genomics, 2012).
Activity calls are given as the source filed them. No rule for the calls is given here.

Assay: H9c2 cardiomyoblast viability modulators under 2-DG – cell-based, ATPlite luminescence, rat, set 2, myocardial damage modulator project, dose response (AID 602210)
Details: H9c2 rat cardiomyoblasts, 2-deoxyglucose-induced death, 2 h

Compound | IC50
COc1cc(NC(=O)c2cc3nc(-c4ccccc4)cc(-c4ccccc4)n3n2)cc(OC)c1OC | 7.15 µM
COc1ccc(-c2nnc(-c3cc(OC)c(OC)c(OC)c3)o2)cc1OC | 15.9 µM (inactive)
N#Cc1cnn2cc(-c3ncc(C(F)(F)F)cc3Cl)cnc12 | 47.7 µM (inactive)
CC(C)C(=O)N1CCN(c2ccc(NC(=O)COc3ccccc3[N+](=O)[O-])cc2)CC1 | 5.55 µM
Cc1cccc(NC(=O)c2nc[nH]c2C(=O)NCC(=O)OCc2ccccc2)c1 | > 79 µM (inactive)
CCOC(=O)C1CCCN(C(=O)CCC(=O)Nc2ccc3nc(N4CCOCC4)cc(C)c3c2)C1 (centres undefined) | 38.8 µM (inactive)
COc1ccc(-c2ccc3[nH]c4c(c3c2)CCN2C[C@H]3[C@H](C)ON(C)[C@H]3C[C@@H]42)cc1 | 29.8 µM (inactive)
CC(=O)Nc1cccc(NC(=O)c2cc(-c3cccnc3)nc3ccc(Cl)cc23)c1 | > 79 µM (inactive)
Cc1nc(N2CCN(c3ccccn3)CC2)c2c(C)c(C(=O)Nc3ccc(F)cc3)sc2n1 | 14.9 µM (inactive)
CCOCCCNC(=O)CCC(=O)NNc1nc2ccccc2c2nc(-c3ccccc3)nn12 | 35.6 µM (inactive)
COc1ccc(-c2oc(=O)c3cc(OC)c(OC)cc3c2C#CCCO)cc1 | 21.7 µM (inactive)
CCC(CC)C(=O)Nc1cc(C)c2c(=O)oc3ccccc3c2n1 | 36.4 µM (inactive)
CSc1nc2ccc(S(=O)(=O)Nc3c(C)n(C)n(-c4ccccc4)c3=O)cc2s1 | 8.98 µM
CCOC(=O)c1c(C)[nH]c(C)c1C(=O)COc1ncnc2cc([N+](=O)[O-])ccc12 | 19.8 µM (inactive)
O=C(Nc1cccc(/C=C/c2ccccn2)c1)c1ccc(-n2cncn2)cc1 | > 79 µM (inactive)
COc1ccc(-c2cc(NC(C)=O)c3ncc(-c4ccc(OC)c(OC)c4)n3c2)cc1OC | 14.8 µM (inactive)
C[C@@H]1CN([C@H](C)CO)S(=O)(=O)c2ccc(C#Cc3ccccc3F)cc2O[C@H]1CN(C)C(=O)c1ccc2c(c1)OCO2 | 8.38 µM
C=C1C(C)C2C(Cc3ccccc3)NC(=O)C23OC(=O)/C=C/C(O)CCCC(C)C/C=C/C3C1O (centres undefined) | 0.95 µM
COc1ccc(-c2oc3c(OC)c(OC)c(OC)c(O)c3c(=O)c2OC)cc1OC | > 79 µM (inactive)
COc1cc2[nH]c(=O)n3nc(-c4ccccc4)nc3c2cc1OC | 12.1 µM (inactive)
COc1cc(/C=C/c2nc3ccccc3c(=O)n2-c2ccccc2O)ccc1O | 27.5 µM (inactive)
NC(=O)c1nsc(C(=O)N(c2ccccc2F)C(C(=O)NCc2ccc(F)cc2)c2ccc(O)cc2)c1N (centres undefined) | 3.13 µM
Cc1c(O)ccc2c(-c3ccccc3)cc(=O)oc12 | 31.7 µM (inactive)

Compound | IC50
O=C(N/N=C/c1ccc2c(c1)OCO2)c1ccc(NC(=O)c2ccccc2Cl)cc1 | 14.8 µM (inactive)
COc1cc(C(=O)N/N=C/c2ccc(OC(=O)c3cccc(C)c3)c(OC)c2)ccc1O | 14.2 µM (inactive)
COc1cc(-c2cc(NC(C)=O)c3ncc(-c4cc(OC)c(OC)c(OC)c4)n3c2)cc(OC)c1OC | 9.01 µM
COc1cc(-c2cc(NC=O)c3ncc(-c4ccc(C(C)=O)cc4)n3c2)ccc1O | > 79 µM (inactive)
O=C(CN1CCCCC1)Nc1nc(-c2ccc(F)c(F)c2)cs1 | > 79 µM (inactive)
Brc1ccc(-c2ccc(/C=N/Nc3nc(N4CCOCC4)nc(N4CCOCC4)n3)o2)cc1 | 5.7 µM
CC(=O)c1cccc(-c2cnc3c(NC=O)cc(-c4cccc(C(=O)N(C)C)c4)cn23)c1 | 39.7 µM (inactive)
Nc1c(C(=O)NC2CC2)c2nc3ccccc3nc2n1-c1ccc2c(c1)OCO2 | > 79 µM (inactive)
Cc1ccc(NC(=O)c2nc[nH]c2C(=O)NCCCNC(=O)c2[nH]cnc2C(=O)Nc2ccc(C)cc2)cc1 | 1.33 µM
COc1ccc(OCC(O)Cn2c(Nc3cccc(C)c3)nc3c2c(=O)n(C)c(=O)n3C)cc1 (centres undefined) | 34 µM (inactive)
CN1CCc2nc3ccccc3c(C(=O)OCC(=O)N(CCC#N)c3ccccc3)c2C1 | > 79 µM (inactive)
O=C(Nc1ccc2c(c1)OCO2)c1cnn2c(C(F)(F)F)cc(-c3ccco3)nc12 | > 79 µM (inactive)
O=C(COc1cccc(NC(=O)c2cccc([N+](=O)[O-])c2)c1)c1ccc(F)cc1 | 11.2 µM (inactive)
COc1cccc(CN2CCN(C(=O)c3cc(-c4cccnc4)nc4ccc(C)cc34)CC2)c1 | 48.8 µM (inactive)
CCOc1ccccc1N1CC(O)=C(c2nc3ccccc3s2)C1=N | 13.8 µM (inactive)
O=C(CCCn1c(SCC(=O)c2ccc(O)c(O)c2)nc2ccccc2c1=O)NCC1CCCO1 (centres undefined) | 36.8 µM (inactive)
CCN1C(=O)/C(=C/c2nc3ccccc3c(=O)[nH]2)c2ccccc21 | 27.9 µM (inactive)
Cc1nc(SCC(=O)N2CCN(c3ccccc3)CC2)c2oc3ccccc3c2n1 | 25.8 µM (inactive)
O=C(N/N=C/c1ccccn1)c1[nH]c2ccc([N+](=O)[O-])cc2c1-c1ccccc1 | > 79 µM (inactive)
COc1cc(/C=N/NC(=O)NC23CC4CC(CC(C4)C2)C3)ccc1OCC(N)=O | 7.76 µM
COc1cc(-c2cc(NC=O)c3ncc(-c4ccccc4)n3c2)cc(OC)c1OC | > 79 µM (inactive)
COc1ccc(-c2cc(-c3nnc(COC(=O)c4ccncc4)o3)c3ccccc3n2)cc1OC | 18.1 µM (inactive)
CC(C)(C)C(=O)Nc1cccc(-c2nnc(-c3cccc(NC(=O)C(C)(C)C)c3)o2)c1 | 10.7 µM (inactive)

Compound | IC50
COc1ccc(-c2cc(NC(C)=O)c3ncc(-c4cccc(C(C)=O)c4)n3c2)cc1OC | 8.06 µM
Cc1nc2c(c(=O)n1CCC1=CCCCC1)c1nc3ccccc3nc1n2/N=C/c1ccccc1 | 15.1 µM (inactive)
O=c1cc(-c2cccnc2)oc2c1ccc1ccccc12 | 16.4 µM (inactive)
COc1ccc(-c2cc(C(=O)Nc3ccccc3N3CCOCC3)c3ccccc3n2)cc1OC | 7.58 µM
O=C(C(=O)N(Cc1ccccc1)Cc1ccccc1)c1c(-c2ccccc2)[nH]c2ccccc12 | 1.88 µM
CCCOc1ccc2[nH]c(C(=O)N/N=C/c3cc(OC)c(OC)c(OC)c3)cc2c1 | > 79 µM (inactive)
Cn1c(=O)c2[nH]c(NN=Cc3cccc(Br)c3)nc2n(C)c1=O | 7.47 µM
CCC(c1nnnn1Cc1ccccc1)N1CCC(n2c(=O)[nH]c3ccccc32)CC1 (centres undefined) | 1.98 µM
CCOC(=O)C1CCN(c2cc3c(cc2NC(=O)c2ccc(F)cc2)n(C)c(=O)n3C)CC1 | 28.5 µM (inactive)
COc1ccc(Cl)cc1NC(=O)CCS(=O)(=O)c1cc2c(cc1C)NC(=O)CO2 | 26 µM (inactive)
CC(C)C1Nc2ccc(C(=O)N3CCN(c4ccccn4)CC3)cc2NC1=O (centres undefined) | > 79 µM (inactive)
COC(=O)c1cc2ccccn2c2c(C(=O)OC)c(C(=O)OC)cc1-2 | 5.26 µM
O=C(c1ccc(-c2nc3ccccc3s2)o1)N1CCN(c2ccccc2O)CC1 | 13.2 µM (inactive)
COC(=O)c1cc2c(C)c(C)c3ccccn3c-2c1C(=O)OC | 7.29 µM
C=CC[C@@H](CC(=O)NCCO)C(=O)NC[C@H](OC(=O)[C@@H](CC=C)Cc1ccc(F)cc1)c1ccccc1 | 11.9 µM (inactive)
COC(=O)c1[nH]c2cc(OC)c(OC)cc2c1/C=N/Nc1ccccc1 | > 79 µM (inactive)
COc1ccc(-c2cnc3c(NC=O)cc(-c4cccc(NS(C)(=O)=O)c4)cn23)cc1OC | 13.4 µM (inactive)
COc1cccc(-c2nn3c(-c4ccccn4)nnc3s2)c1 | 16.1 µM (inactive)
NS(=O)(=O)c1ccc(N=Cc2c(O)n(-c3nccs3)c(=O)c3ccccc23)cc1 | 37.2 µM (inactive)
O=C(c1ccco1)N1CCN(C(=O)c2cc(-c3ccncc3)nc3ccc(Br)cc23)CC1 | 25.8 µM (inactive)
CCOC(=O)C1CCN(c2cc3c(cc2NC(=O)c2ccc(OC)c(OC)c2)n(C)c(=O)n3C)CC1 | 4.59 µM
O=C(N/N=C\c1ccccn1)c1cccc(C(=O)N/N=C\c2ccccn2)n1 | 10.2 µM (inactive)
CC(C)CC(C(=O)NC1CCCCC1)N(Cc1cccs1)C(=O)c1snc(C(N)=O)c1N (centres undefined) | 29.3 µM (inactive)

Compound | IC50
COc1cccc2cc(-c3cc(=O)oc4ccc(OCC(C)=O)cc34)oc12 | > 79 µM (inactive)
CNC(=O)c1ccc(-c2sc3nc(N4CCOCC4)c4c(c3c2N)CCCC4)o1 | > 79 µM (inactive)
CC(=O)Nc1cc(-c2ccc(C(=O)NC3CC3)cc2)cn2c(-c3cccc(C(C)=O)c3)cnc12 | 23.3 µM (inactive)
NC(=O)c1nsc(C(=O)N(CCc2ccccc2)C(C(=O)NC2CCCC2)c2ccco2)c1N (centres undefined) | 25.8 µM (inactive)
N#Cc1ccccc1S(=O)(=O)N1CCN(c2nc(-c3cccnc3)nc3ccccc23)CC1 | 8.75 µM
Cn1c(=O)n(CCc2ccccc2)c(=O)c2c1nc1n2CCCN1Cc1ccccc1 | 14.5 µM (inactive)
Cc1c(C(=O)Nc2ccc3nc(N4CCOCC4)sc3c2)oc2ccccc12 | 15.8 µM (inactive)
COc1ccc(OC)c(NC(=O)c2sc3ncnc(N4CCN(c5ccccn5)CC4)c3c2C)c1 | 12.1 µM (inactive)
CC(C)(C)OC(=O)C[C@@H]1C/C=C\C[C@@H](CC(=O)N[C@@H](CO)Cc2ccccc2)C(=O)NC[C@@H](c2ccccc2)OC1=O | 22.6 µM (inactive)
COc1ccc2[nH]c(=O)c(CN(Cc3cccnc3)S(=O)(=O)c3ccccc3F)cc2c1 | 2.74 µM
COc1ccc(/C=N/NC(=O)c2ccc(COc3cccc4cccnc34)cc2)cc1OC | 12.1 µM (inactive)
C/C(=N\Nc1nnc2c3ccccc3n(C)c2n1)c1ccc(C)o1 | 12.3 µM (inactive)
O=C(Nc1ccc(C(=O)N2CCOCC2)cc1)c1cnn2c(C(F)F)cc(-c3ccccc3)nc12 | > 79 µM (inactive)
Cc1nn2c(-c3cccc(NC(=O)c4ccco4)c3)nnc2c2ccccc12 | 7.77 µM
O=C(CN(c1ccc2c(c1)OCCO2)S(=O)(=O)c1ccccc1)Nc1ccc2c(c1)OCO2 | 14.7 µM (inactive)
CC(C)(C)OC(=O)CNC(=O)c1[nH]cnc1C(=O)NCC(=O)OCc1ccccc1 | 4.16 µM
CN(C)S(=O)(=O)c1ccc2[nH]cc(/C=C/c3nc4ccccc4c(=O)n3-c3ccccc3)c2c1 | 4.24 µM
Cn1c(=O)[nH]c(=O)c2c1nc(N(CCO)Cc1ccccc1)n2CCCc1ccccc1 | > 79 µM (inactive)
COc1ccc(-c2nn(-c3ccccc3)cc2C(=O)Nc2nccs2)cc1 | 16.4 µM (inactive)
COc1ccc(-c2ccc3c(c2)S(=O)(=O)c2cccc(C(=O)NC[C@@H]4CCCO4)c2C3=O)cc1OC | 13.4 µM (inactive)
